Molecules are shown by their SMILES. Entries after “also recorded” stand apart in the source; their conditions may differ.

The source of these data is patent publication US20220387412A1, “Novel Superebastine Against Therapy Resistant Prostate Cancer” (University of Kentucky Research Foundation, priority 2019, published 2022).

Type in all cases: cell-based
Data set [1] deals with LNCaP cells. Put plainly: Western blot for γH2AX (Ser139), DNA double stranded breaks, LNCaP. To be noted: 0.25 or 0.5 μM, 24 h. How it is done: (§1) FIGS. 7A-B show images illustrating that Super-EBS induces DNA damage in AR-positive prostate cancer cells. (A) C4-2 cells were treated with Super-EBS (0.5 or 1 μM) for 24 h in 10% FBS containing medium. […] Lysates were probed for YH2AX (Ser139 phosphorylation), a marker for DSB by Western blot analysis.
(§2) Super-EBS induces DNA damage in AR-positive prostate cancer cells. Lysates from AR-positive androgen-independent C4-2 cells (FIG. 7A) or androgen-dependent LNCaP cells (FIG. 7B) were treated with Super-EBS and subjected to Western blot analysis for γH2AX (Ser 139) positivity to detect DNA double stranded breaks (DSB). Super-EBS induced DSBs in both C4-2 and LNCaP cells (FIGS. 7A-B).

The test system of data set [2] is CWR22Rv1 ENZ-sensitive cells. Put plainly: ICC for active caspase 3 (apoptosis), CWR22Rv1 ENZ-sensitive. As to conditions: 0.1-5 μM, 24 hours. The method, then:
(§3) FIGS. 5A-B show images and graphs illustrating that Super-EBS causes cell death by the activation of an apoptotic cascade. (A) AR-v7 expressing CwR22Rv1 and CwR22Rv1 Enz(R) cells were treated with Super-EBS (0.1-5 μM) in 10% FBS for 24 h and tested by ICC analysis for cleaved caspase 3 (green) and DAPI (blue). (B) Quantitative representation of ICC data. *P<0.05; **P<0.01 by Student's t test.
(§4) After determining that the cells were sensitive to Super-EBS, they were tested to determine whether Super-EBS inhibited cell viability by inducing apoptosis. CWR22Rv1 ENZ-sensitive and CWR22Rv1 ENZ-resistant cell lines were treated with vehicle, 0.1-, 0.5-, 1- and 5-μM of Super-EBS for 24 hours. The cells were then subjected to immunocytochemical (ICC) analysis for active caspase 3 (green fluorescence) to detect apoptotic cells, and 4, 6-diamidino-2-phenylindole (DAPI) staining (blue fluorescence) to reveal the cell nucleus. Cells were scored for apoptosis under a confocal microscope and percent apoptosis was calculated. […] Mean+SD are shown. P<0.01 by Student's t-test.
(§5) Super-EBS causes cell death by the activation of an apoptotic cascade. […] CwR22Rv1 Enz(R) cells were also tested with Super-EBS for 24 h and subjected to FACS analysis using Annexin V and propidium iodide (PI) staining.

In data set [3] the test system is C4-2, C4-2R, LNCaP and M49C cells. The data set can be described thus: Resazurin cell viability assay, AR-positive cells and drug resistant counterparts. As to conditions: 24 h, 10% FBS. The method, then: FIGS. 4A-B show graphs illustrating viability of androgen independent and androgen dependent cells treated with Super-EBS. (A) Androgen independent AR-positive C4-2 and C4-2R were treated with Super-EBS and vehicle control for 24 h in 10% FBS. Cell viability was measured by Resazurin assay. (B) Androgen dependent AR-positive LNCaP and M49C were treated under same condition and cell viability by Resazurin assay. *P<0.05; ** P<0.01 by the Student's t test.
In particular, cell viability of the AR-positive prostate cancer cells and their drug resistant counterparts was lower for the cells treated with Super-EBS.

The subject of data set [4] is C4-2 cells. The data set can be described thus: Western blot for γH2AX (Ser139), DNA double stranded breaks, C4-2. To be noted: C4-2, 0.5 or 1 μM, 24 h. The method, then:
as §1, §2

Data set [5] concerns CWR22Rv1 ENZ-sensitive cells. Put plainly: Resazurin cell viability assay, CWR22Rv1 ENZ-sensitive. To be noted: CWR22Rv1 ENZ-sensitive, 24, 48 and 72 hours. How it is done:
(§6) Mean+SD shown. (*) Asterisk indicates […] by the Student's t-test.
(§7) Cell viability was then measured by resazurin assays. […] On the other hand, Super-EBS (10 μM) was effective in 24 hours. […] Mean+SD are shown. P<0.01 by Student's t-test.

Data set [6] deals with CWR22Rv1 ENZ-resistant cells. Put plainly: Resazurin cell viability assay, CWR22Rv1 ENZ-resistant. As to conditions: CWR22Rv1 ENZ-resistant, 24, 48 and 72 hours. The method, then: as §6, §7
Data set [7] relates to CwR22Rv1 Enz(R) cells. Put plainly: Annexin V-PI staining and FACS analysis for apoptotic cells. As to conditions: 2 or 4 μM, 24 h. The method, then:
CwR22Rv1 Enz(R) cells were treated with Super-EBS (2 or 4 μM) for 24 h in 10% FBS containing medium. Live cells were subjected to Annexin V-PI staining and FACS analysis for apoptotic cells. The percentage on the figure indicates the percentage of cells post treatment.
as §5

Data set [8] deals with CWR22Rv1 ENZ-resistant cells. The data set can be described thus: ICC for active caspase 3 (apoptosis), CWR22Rv1 ENZ-resistant. As to conditions: 0.1-5 μM, 24 hours. The method, then:
as §3, §4, §5

In data set [9] the test system is prostate cancer cells. Put plainly: Growth inhibition / cell death of prostate cancer cell cultures. As to conditions: for cell death: within 24 h. The source says: RAGE activation promotes proliferation, invasive bone homing, and metastasis of PCa cells.
Data set [10] has as its system PC-3 cells. Put plainly: Resazurin cell viability assay, PC-3. As to conditions: for cell viability (resazurin): PC-3, 10 μM. How it is done:
as §6, §7

Data set [11] deals with CwR22Rv1 Par-4 knock-down cells. Put plainly: γH2AX ICC / Western blot in Par-4 wild type and knock-down cells. As to conditions: CwR22Rv1, 0.25 μM, 24 h. The method, then:
FIGS. 8A-B show images illustrating that DNA damage induced by Super-EBS is mediated by Par-4. (A) CwR22Rv1 Par-4 wild type and knock-down cells were treated with Super-EBS (0.25 μM) for 24 h in medium containing 10% FBS, and then subjected to ICC for Par-4 (green) or YH2AX (Ser139) (red). (B) Western blot analysis for YH2AX, Par-4 and GAPDH was performed on lysates of Par-4 wild type (left) and knock-down (right) prostate cancer cells treated with Super-EBS (0.25 μM) for 24 h.
DNA damage induced by Super-EBS is mediated by Par-4.

For `CC(C)(C)c1ccc(/C(CCCN2CCC(OC(c3ccccc3)c3ccccc3)CC2)=N\C(=N)N)cc1` [Super-EBS], the “DNA double stranded breaks (γH2AX Ser139)” value in data set [1] and in data set [4] was “induced DSBs” each time. In addition, the “apoptosis (active caspase 3 ICC) relative to vehicle control” value in [2] and in [8] was “significantly higher levels; also recorded: dose dependent increase in apoptotic cells” each time. In data set [3] (10 μM), the “cytotoxic effect compared with EBS” value is on record as “more pronounced than EBS”. Also, the “susceptibility of LNCaP and M49C versus C4-2 and C4-2R to cytotoxic action” value in data set [3] is on record as “more susceptible”. Further, the “cell viability (resazurin), effective concentration” value in data set [5] was “effective at nanomolar concentrations”; in data set [6], “effective at nanomolar concentrations”; in data set [10] (PC-3, 24, 48 and 72 hours), “effective at nanomolar concentrations”. Moreover, the “cells in the early and late stages of apoptosis (Annexin V/PI FACS)” value in [7] is listed as “dose dependent increase”. Further, in data set [9] (ENZ-resistant as well as ENZ-sensitive prostate cancer cells), the “concentration inducing apoptosis and growth inhibition” value is listed as “nanomolar concentrations”. In addition, the cell death in data set [9] (ENZ-resistant prostate cancer cell cultures) and in [9] (ENZ-sensitive prostate cancer cell cultures) was 95-98% throughout. Also, the “potency in killing cells compared with EBS” value in data set [9] (parental and ENZ-resistant prostate cancer cell lines) was “more potent than EBS”. For the same compound, the “cell viability (resazurin)” value in [10] (24 hours) is recorded as “effective”. Moreover, the “γH2AX positivity after Par-4 knock-down” value in data set [11] was “decrease in the YH2AX positivity”.
For the compound `CC(C)(C)c1ccc(C(=O)CCCN2CCC(OC(c3ccccc3)c3ccccc3)CC2)cc1` [EBS, 4-[4-(Diphenylmethoxy)-1-piperidinyl]-1-[4-(2-methyl-2-propanyl)phenyl]-1-butanone, reference compound], the “DNA double stranded breaks (γH2AX Ser139)” value in data set [1] was “but not EBS induced significant amount of DSBs”. Further, in [10] (72 hours), the “cell viability (resazurin)” value is “sensitive”.
